{
  "source": "patent US11446352B2",
  "about": "“Compositions and methods for inhibiting tumor-induced immune suppression” (priority 2017, dated 2022)",
  "key": {"[1]": {"test_system": "Hs578T triple-negative cell line", "assay": "cell survival of breast cancer cell line upon treatment with EnnA", "assay_type": "cell-based, human", "conditions": "48 and 72 h", "excerpt": "(§1) The first bar indicates 100% folding activity of RRL without inhibitor. PR22 indicates the antibody without PR but with RRL and EnnA. PR represents the antibody (PR22) with PR but without RRL. All other samples have PR22, PR, and RRL without (first bar) or with increased concentration of EnnA. FIGS. 1C-1E are line graphs of cell survival versus EnnA concentration (μM) in breast cancer cell lines Hs578T (FIG. 1C), […] (FIG. 1D) and MDA-MB231 (FIG. 1E) upon treatment with EnnA for 48 and 72 h. […] PR alone (PR), antibody (PR22)+RRL, PR+RRL without inhibitor (RRL), PR+RRL with 1 μM 17-AAG (17AAG) PR+RRL with 10 μM BEAU or EnnA. FIGS. 1G-1I are autoradiographs of Western blots of cytosols from various cell lines treated with 17-AAG (1 μM) or EnnA (3 μM) with antibodies against the specified proteins. FIG. 1J is an autoradiograph showing EnnA causes autophagy in Hs578T and MDA-MB453 cell lines. FIGS. 1K-1N are electron microscopy micrographs showing autophagosomes and reduced mitochondria content in Hs578T cells treated with DMSO or EnnA. FIGS. 1O-1P are fluorescence micrographs showing EnnA causing reduced mitochondria content in Hs578T cells. FIGS. 1Q-1BB are fluorescence micrographs showing mitophagy in Hsp578T cells treated with EnnA as indicated by colocalization of the mitochondria marker Cox4 and the autophagy marker LC3BII."}, "MDA-MB-231 cell line": {"test_system": "MDA-MB-231 cell line", "assay": "cell survival of breast cancer cell line upon treatment with EnnA", "assay_type": "cell-based, human", "conditions": "MDA-MB-231, 48 and 72 h", "excerpt": "as §1"}, "[2]": {"test_system": "Hsp90 client proteins, Hsp70, Hsp27", "assay": "Western blots of cytosols from cell lines treated with 17-AAG or EnnA", "assay_type": "cell-based, human", "excerpt": "as §1"}, "4T1 cells": {"test_system": "4T1 cells", "assay": "MTT cell proliferation assay", "assay_type": "cell-based, murine", "conditions": "4T1, in vitro, 72 h", "excerpt": "(§2) FIGS. 2I-2K show FACS analysis of Hsp90β expression on the cell surface of E0771 cells treated with DMSO or EnnA. FIGS. 2L-2N show FACS analysis of the ratio of Hsp90α to Hsp90β expression on the cell surface of E0771 cells treated with DMSO or EnnA. FIGS. 2O-2Q show FACS analysis of Hsp90α expression on the cell surface of E0771 cells treated with DMSO or EnnA. FIG. 2R is a bar graph showing expression of Hsp90β on the surface of AT3 cells treated with DMSO or EnnA. FIG. 2S is a bar graph showing expression of Hsp90α on the surface of AT3 cells treated with DMSO or EnnA. FIGS. 2T-2X show FACS analysis of Hsp90β expression on the surface of E0771 tumor cells treated with mIgG, DMSO, or EnnA.\n(§3) The mechanism of action of EnnA appears to be different from that of 17-AAG. […] Further studies studies using murine breast cancer cells lines have shown that EnnA kills E0771, AT3, EMT6 and 4T1 in vitro (FIG. 2A-2D)."}, "AT3 cells": {"test_system": "AT3 cells", "assay": "MTT cell proliferation assay", "assay_type": "cell-based, murine", "conditions": "AT3, in vitro, 72 h", "excerpt": "as §2, §3"}, "EMT6 cells": {"test_system": "EMT6 cells", "assay": "MTT cell proliferation assay", "assay_type": "cell-based, murine", "conditions": "EMT6, in vitro, 72 h", "excerpt": "as §2, §3"}, "[3]": {"test_system": "Hsp90β on the surface of E0771 and AT3 cells", "assay": "FACS analysis of Hsp90β expression on the cell surface", "assay_type": "cell-based, murine", "conditions": "in vitro (E0771, AT3 cell culture) and in vivo (E0771 tumors)", "excerpt": "as §2"}, "[4]": {"test_system": "murine breast cancer cells", "assay": "qPCR analysis of mRNA level of cytokines, chemokines, PDL1 and IDO", "assay_type": "cell-based", "experimental": "(§4) FIG. 3A-3B are autoradiographs of a Western blot showing expression of the indicated proteins in control (left lane) and 0.5 μM EnnA-treated (right lane) E0771 (FIG. 3A) and AT3 (FIG. 3B) cells. FIG. 3C is a graph showing FACS analysis of PD-L1 level in AT3 cells. FIGS. 3D-3K are graphs showing qPCR analysis of the mRNA level of cytokines TNFa (FIG. 3D), IL-6 (FIG. 3E), TGFb1 (FIG. 3F) and IL-10 (FIG. 3G), the chemokines S100a9 (FIG. 3J) and CCL3 (FIG. 3K), as well as PDL1 (FIG. 3H) and IDO (FIG. 3I). FIGS. 3L-3Q are micrographs of HEK293 cells transiently transfected with GFP-IDO fusion protein expressing or GFP alone plasmids for 24 h. Cells were then treated with 5 μM EnnA for 6 h and analyzed for green fluorescence and bright light. FIG. 3R is a line graph of μg/ml of tryptophan and its IDO-mediated product kynurenine using the previously reported HPLC-based assay."}, "IDO-GFP fusion protein": {"test_system": "IDO-GFP fusion protein", "assay_type": "cell-based", "conditions": "HEK 293 cells", "experimental": "as §4\nWestern blot analysis (FIG. 3A-3B) confirmed that EnnA destabilizes pAKT and reduces the protein expression of Hsp40 in E0771 and AT3. […] It also reduces the mRNA level of the chemokines S100a9 and CCL3 (FIG. 3J-3K). Importantly, EnnA reduces the mRNA and protein levels of the key immunological checkpoint component PDL-1 (FIG. 3H). Similar results were obtained with EMT6 (not shown). […]"}, "E0771 tumors [5]": {"test_system": "E0771 tumors", "assay": "E0771 syngeneic tumor model in C57BL/6 immunocompetent mice", "assay_type": "in vivo", "conditions": "for anti-tumor activity (tumor volume): C57BL/6, 10 mg/kg every other day", "experimental": "(§5) 50,000 E0771 cells were surgically implanted in mammary fad pad of 10 C57BL/6 immunocompetent mice and 10 immunocompromised nude mice. 12 days after surgery, B6 and nude mice were divided into two groups each. the EnnA group was injected with 10 mg/kg of EnnA every other day, and the control group received a mixture of 15% DMSO and 20% cremophor in PBS.\n100,000 E0771 cells were surgically implanted in mammary fat pad of 20 mice. Ten days after surgery, mice were divided into two groups: the EnnA group was injected with 10 mg/kg of EnnA every other day, and the control group received a mixture of 15% DMSO and 20% cremophor in PBS."}, "E0771 tumors [6]": {"test_system": "E0771 tumors", "assay": "E0771 tumor model in immunocompromised nude mice", "assay_type": "in vivo", "conditions": "10 mg/kg every other day", "experimental": "as §5"}},
  "data": [
    {"smiles": "CC[C@H](C)[C@H]1C(=O)O[C@H](C(C)C)C(=O)N(C)[C@@H]([C@@H](C)CC)C(=O)O[C@H](C(C)C)C(=O)N(C)[C@@H]([C@@H](C)CC)C(=O)O[C@H](C(C)C)C(=O)N1C", "note": "[EnnA, Enniatin A]", "values": [
      {"measurement": "cytotoxicity", "setting": "[1]", "value": "potent and concentration-dependent cytotoxicity"},
      {"measurement": "cytotoxicity", "setting": "MDA-MB-231 cell line", "value": "potent and concentration-dependent cytotoxicity"},
      {"measurement": "stability of Hsp90 client proteins", "setting": "[2]; EnnA 3 μM", "value": "destabilization"},
      {"measurement": "induction of Hsp27", "setting": "[2]; MAD-MB-453 cells", "value": "slightly induced"},
      {"measurement": "overexpression of Hsp70", "setting": "[2]; all cell lines tested, EnnA 3 μM", "value": "does not induce overexpression"},
      {"measurement": "IC50", "setting": "4T1 cells", "value": "~2.5", "unit": "µM"},
      {"measurement": "IC50", "setting": "AT3 cells", "value": "5 to 10", "unit": "µM"},
      {"measurement": "IC50", "setting": "EMT6 cells", "value": "~2.5", "unit": "µM"},
      {"measurement": "exposure of Hsp90β to the surface of cancer cells", "setting": "[3]", "value": "induces exposure"},
      {"measurement": "level of anti-inflammatory IL-10 mRNA", "setting": "[4]", "value": "reduces"},
      {"measurement": "mRNA expression of IL-6", "setting": "[4]", "value": "significant increase"},
      {"measurement": "mRNA expression of TGFβ", "setting": "[4]", "value": "significant increase"},
      {"measurement": "mRNA expression of TNFα", "setting": "[4]", "value": "significant increase"},
      {"measurement": "mRNA expression of indolamine 2,3 dioxygenase", "setting": "[4]", "value": "highly increased"},
      {"measurement": "mRNA level of chemokine CCL3", "setting": "[4]", "value": "reduces"},
      {"measurement": "mRNA level of chemokine S100a9", "setting": "[4]", "value": "reduces"},
      {"measurement": "mRNA and protein levels of PDL-1", "setting": "[4]; Western blot / FACS", "value": "reduces"},
      {"measurement": "IDO-GFP green fluorescence", "setting": "IDO-GFP fusion protein; 5 μM EnnA, 6 h", "value": "dramatic loss"},
      {"measurement": "cell death", "setting": "IDO-GFP fusion protein; early time point (6 h)", "value": "No significant cell death"},
      {"measurement": "effect on bodyweight or activities of mice", "setting": "E0771 tumors [5]; 10 mg/kg every other day", "value": "No significant effect"},
      {"measurement": "anti-tumor activity (tumor volume)", "setting": "E0771 tumors [5]; Example 3: 50,000 E0771 cells", "value": "powerful anti-tumor activity"},
      {"measurement": "anti-tumor activity (tumor volume)", "setting": "E0771 tumors [5]; Example 4: 100,000 E0771 cells", "value": "powerful anti-tumor activity"},
      {"measurement": "anti-tumor activity (tumor volume)", "setting": "E0771 tumors [6]", "value": "no significant anti-tumor activity"}
    ]}
  ]
}
